Laboratory results published in patent US10479795B2 (Incyte Corporation, priority 2016, dated 2019).
Where a name gives a salt, the structure may show the parent alone.

Legend:
[1] = system: Phosphorylated Ribosomal Protein S6 (RPS6); test: THP-1 RPS6 ELISA Assay; type: cell-based, Human; conditions: Homo sapiens; THP-1 cells; read-out: PI3Kγ_THP1_RPS6_ELISA IC50
How it was run: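 Serum-starved THP-1 cells were preincubated with a concentration range of compound for 2 h at 37 °C, then stimulated with 10 nM MCP-1 for 15 min. Phospho-RPS6 in lysates was quantified by ELISA at 450 nm. IC50 came from percent inhibition versus log inhibitor concentration.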

[2] = molecular target: PI3Kγ (p110γ) Recombinant Human Protein (Homo sapiens (Human), UniProt P48736); test: PI3K-γ Scintillation Proximity Assay; type: biochemical; conditions: read-out: PI3Kγ IC50
PI3Kγ (p110γ) Recombinant Human Protein, sequence (P48736 whole entry): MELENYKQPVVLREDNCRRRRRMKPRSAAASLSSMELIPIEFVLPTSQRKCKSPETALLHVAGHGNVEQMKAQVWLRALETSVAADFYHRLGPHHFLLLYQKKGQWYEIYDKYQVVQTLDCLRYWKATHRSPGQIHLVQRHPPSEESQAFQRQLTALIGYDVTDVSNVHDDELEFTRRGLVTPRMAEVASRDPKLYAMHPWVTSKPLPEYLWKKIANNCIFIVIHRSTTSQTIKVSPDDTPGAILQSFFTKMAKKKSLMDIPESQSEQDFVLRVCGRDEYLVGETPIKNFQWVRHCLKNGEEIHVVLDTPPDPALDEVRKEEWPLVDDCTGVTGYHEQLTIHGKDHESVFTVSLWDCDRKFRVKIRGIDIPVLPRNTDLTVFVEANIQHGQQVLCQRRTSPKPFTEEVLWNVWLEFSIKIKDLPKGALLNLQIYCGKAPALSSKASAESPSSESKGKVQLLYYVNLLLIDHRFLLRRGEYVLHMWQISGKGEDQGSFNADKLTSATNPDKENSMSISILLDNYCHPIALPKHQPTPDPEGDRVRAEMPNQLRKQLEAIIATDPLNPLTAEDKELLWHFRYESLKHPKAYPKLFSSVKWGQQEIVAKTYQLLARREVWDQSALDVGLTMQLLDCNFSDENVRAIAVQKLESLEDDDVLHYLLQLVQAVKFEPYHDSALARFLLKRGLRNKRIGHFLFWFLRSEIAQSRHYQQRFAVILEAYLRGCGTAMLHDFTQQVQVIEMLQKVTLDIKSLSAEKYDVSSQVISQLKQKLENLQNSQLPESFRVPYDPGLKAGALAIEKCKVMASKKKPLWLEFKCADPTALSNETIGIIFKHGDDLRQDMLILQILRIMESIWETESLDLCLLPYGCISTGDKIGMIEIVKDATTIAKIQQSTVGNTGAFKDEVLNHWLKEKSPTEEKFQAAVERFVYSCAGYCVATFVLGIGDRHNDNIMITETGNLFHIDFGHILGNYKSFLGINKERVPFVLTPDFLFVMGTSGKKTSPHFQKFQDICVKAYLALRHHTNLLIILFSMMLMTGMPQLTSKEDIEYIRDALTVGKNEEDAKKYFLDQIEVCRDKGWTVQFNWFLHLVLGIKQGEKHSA
How it was run: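 Recombinant human p110γ assayed at room temperature in 20 mM MOPS pH 6.7, 10 mM MgCl2, 5 mM DTT, 0.03% CHAPS, 2% DMSO, with 20 μM PIP2 and 2 μM ATP plus [γ-33P]ATP. Product captured on WGA SPA beads overnight and counted; IC50 fitted from % of solvent-control activity versus log inhibitor concentration.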

[3] = molecular target: PI3Kδ (p110δ/p85α) Recombinant Human Protein (Homo sapiens (Human), UniProt O00329); test: PI3Kδ Scintillation Proximity Assay; type: biochemical
PI3Kδ (p110δ/p85α) Recombinant Human Protein, sequence (O00329 whole entry): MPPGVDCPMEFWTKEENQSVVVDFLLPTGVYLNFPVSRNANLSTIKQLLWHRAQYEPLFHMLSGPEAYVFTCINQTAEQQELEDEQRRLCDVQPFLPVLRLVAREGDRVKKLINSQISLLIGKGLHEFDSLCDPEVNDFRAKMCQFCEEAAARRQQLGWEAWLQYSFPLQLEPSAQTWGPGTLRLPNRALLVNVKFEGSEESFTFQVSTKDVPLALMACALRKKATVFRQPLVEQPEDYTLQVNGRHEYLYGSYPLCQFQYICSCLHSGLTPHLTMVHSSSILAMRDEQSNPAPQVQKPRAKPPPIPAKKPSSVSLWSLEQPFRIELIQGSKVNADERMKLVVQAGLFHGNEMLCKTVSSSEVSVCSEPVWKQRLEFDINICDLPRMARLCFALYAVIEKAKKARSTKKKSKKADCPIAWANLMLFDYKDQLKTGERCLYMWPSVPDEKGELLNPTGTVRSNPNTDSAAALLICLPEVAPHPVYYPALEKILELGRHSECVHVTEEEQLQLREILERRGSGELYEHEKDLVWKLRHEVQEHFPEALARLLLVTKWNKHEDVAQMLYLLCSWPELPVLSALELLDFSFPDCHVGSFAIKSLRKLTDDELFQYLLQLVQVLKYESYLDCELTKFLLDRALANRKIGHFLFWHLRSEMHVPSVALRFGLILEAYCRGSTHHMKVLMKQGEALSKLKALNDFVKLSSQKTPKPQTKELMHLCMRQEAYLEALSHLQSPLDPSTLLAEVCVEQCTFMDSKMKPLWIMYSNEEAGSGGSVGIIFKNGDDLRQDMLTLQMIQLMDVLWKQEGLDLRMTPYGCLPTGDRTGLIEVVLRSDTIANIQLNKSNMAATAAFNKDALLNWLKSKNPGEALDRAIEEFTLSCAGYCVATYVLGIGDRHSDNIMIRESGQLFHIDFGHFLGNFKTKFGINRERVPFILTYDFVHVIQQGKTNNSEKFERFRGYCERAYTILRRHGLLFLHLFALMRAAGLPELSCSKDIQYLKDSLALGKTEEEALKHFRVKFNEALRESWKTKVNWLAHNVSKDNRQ
PI3Kδ (p110δ/p85α) Recombinant Human Protein, sequence (P27986 whole entry partner): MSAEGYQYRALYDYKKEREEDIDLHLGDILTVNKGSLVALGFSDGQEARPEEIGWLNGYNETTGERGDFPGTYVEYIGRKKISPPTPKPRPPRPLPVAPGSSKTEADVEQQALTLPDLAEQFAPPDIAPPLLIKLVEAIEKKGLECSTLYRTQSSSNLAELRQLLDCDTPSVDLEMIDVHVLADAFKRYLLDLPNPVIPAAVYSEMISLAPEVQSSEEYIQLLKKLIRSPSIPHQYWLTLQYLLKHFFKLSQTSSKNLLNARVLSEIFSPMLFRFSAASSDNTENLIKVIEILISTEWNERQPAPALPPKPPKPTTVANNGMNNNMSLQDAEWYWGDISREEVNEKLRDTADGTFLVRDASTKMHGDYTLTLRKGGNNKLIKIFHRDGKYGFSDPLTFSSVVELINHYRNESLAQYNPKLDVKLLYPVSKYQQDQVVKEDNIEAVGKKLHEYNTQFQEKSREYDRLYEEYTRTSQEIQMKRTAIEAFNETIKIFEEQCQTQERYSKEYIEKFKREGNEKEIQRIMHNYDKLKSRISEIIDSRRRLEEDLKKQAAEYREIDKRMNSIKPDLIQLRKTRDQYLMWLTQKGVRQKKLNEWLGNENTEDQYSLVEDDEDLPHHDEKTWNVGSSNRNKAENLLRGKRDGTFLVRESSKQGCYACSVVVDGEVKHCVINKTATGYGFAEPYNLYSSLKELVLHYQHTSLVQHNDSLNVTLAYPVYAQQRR
How it was run: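 Kinase reaction run at room temperature in 20 mM MOPS pH 6.7, 10 mM MgCl2, 5 mM DTT, 0.03% CHAPS with 20 μM PIP2, 2 μM ATP plus [γ-33P]ATP, 3.4 nM enzyme, 2% DMSO; 120 min. Quenched with WGA SPA beads/EDTA, counted by scintillation; IC50 from % solvent-control activity vs log concentration.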

SMILES | IC50 [1] | IC50 [2] | IC50 [3]
Cc1nc(N)c2ncc(-c3cc(S(=O)(=O)NC45CCC(O)(CC4)C5)ccc3C)n2n1 [Example 443, 3-(4-Amino-2-methylimidazo[1,2-f][1,2,4]triazin-7-yl)-N-(4-hydroxybicyclo[2.2.1]heptan-1-yl)-4-methylbenzenesulfonamide trifluoroacetate salt] | 100 to 500 nM | < 100 nM | < 100 nM
Cc1ccc(S(=O)(=O)NC23CCC(O)(CC2)C3)cc1-c1cnc2c(N)nc(C(F)(F)F)cn12 [Example 444, 3-(8-Amino-6-(trifluoromethyl)imidazo[1,2-a]pyrazin-3-yl)-N-(4-hydroxybicyclo[2.2.1]heptan-1-yl)-4-methylbenzenesulfonamide trifluoroacetate salt] | 100 to 500 nM | < 100 nM | < 100 nM
CNC(=O)c1cn2c(-c3cc(S(=O)(=O)NCC4CC(F)(F)C4)ccc3C)cnc2c(N)n1 [Example 445, 8-Amino-3-(5-(N-((3,3-difluorocyclobutyl)methyl)sulfamoyl)-2-methylphenyl)-N-methylimidazo[1,2-a]pyrazine-6-carboxamide trifluoroacetate salt] | 100 to 500 nM | < 100 nM | 100 to 500 nM
Cc1ccc(S(=O)(=O)NCC2CC(F)(F)C2)cc1-c1cnc2c(N)nc(C(=O)NC3CCC3)cn12 [Example 446, 8-amino-N-cyclobutyl-3-(5-(N-((3,3-difluorocyclobutyl)methyl)sulfamoyl)-2-methylphenyl)imidazo[1,2-a]pyrazine-6-carboxamide trifluoroacetate salt] | 100 to 500 nM | < 100 nM | 100 to 500 nM
CNC(=O)c1cn2c(-c3cc(S(=O)(=O)NC4CC(F)(F)C4)ccc3C)cnc2c(N)n1 [Example 447, 8-Amino-3-(5-(N-(3,3-difluorocyclobutyl)sulfamoyl)-2-methylphenyl)-N-methylimidazo[1,2-a]pyrazine-6-carboxamide trifluoroacetate salt] | 500 to 1000 nM | < 100 nM | 500 to 2000 nM
Cc1ccc(S(=O)(=O)NC2CC(F)(F)C2)cc1-c1cnc2c(N)nc(C(=O)NC3CCC3)cn12 [Example 448, 8-amino-N-cyclobutyl-3-(5-(N-(3,3-difluorocyclobutyl)sulfamoyl)-2-methylphenyl)imidazo[1,2-a]pyrazine-6-carboxamide trifluoroacetate salt] | 100 to 500 nM | < 100 nM | 500 to 2000 nM
CNC(=O)c1cn2c(-c3cc(S(=O)(=O)N[C@H]4CC[C@H](CC#N)OC4)ccc3C)cnc2c(N)n1 [Example 449, 8-Amino-3-(5-(N-((3S,6R)-6-(cyanomethyl)tetrahydro-2H-pyran-3-yl)sulfamoyl)-2-methylphenyl)-N-methylimidazo[1,2-a]pyrazine-6-carboxamide trifluoroacetate salt] | > 1000 nM | < 100 nM | 100 to 500 nM
Cc1ccc(S(=O)(=O)N[C@H]2CC[C@H](CC#N)OC2)cc1-c1cnc2c(N)nc(C(=O)NC3CCC3)cn12 [Example 450, 8-amino-3-(5-(N-((3S,6R)-6-(cyanomethyl)tetrahydro-2H-pyran-3-yl)sulfamoyl)-2-methylphenyl)-N-cyclobutylimidazo[1,2-a]pyrazine-6-carboxamide trifluoroacetate salt] | 500 to 1000 nM | < 100 nM | 100 to 500 nM
Cc1ccc(S(=O)(=O)N[C@H]2CC[C@H](CC#N)OC2)cc1-c1cnc2c(N)nc(C(=O)NC3CC(F)(F)C3)cn12 [Example 451, 8-amino-3-(5-(N-((3S,6R)-6-(cyanomethyl)tetrahydro-2H-pyran-3-yl)sulfamoyl)-2-methylphenyl)-N-(3,3-difluorocyclobutyl)imidazo[1,2-a]pyrazine-6-carboxamide trifluoroacetate salt] | 500 to 1000 nM | < 100 nM | 100 to 500 nM
Cc1ccc(S(=O)(=O)N[C@H]2CC[C@](C)(O)CC2)cc1-c1cnc2c(N)ncnn12 [Example 463, 3-(4-Aminoimidazo[2,1-f][1,2,4]triazin-7-yl)-N-((1r,4r)-4-hydroxy-4-methylcyclohexyl)-4-methylbenzenesulfonamide] | 100 to 500 nM | < 100 nM | 100 to 500 nM
Cc1ccc(S(=O)(=O)N2CCC[C@@H](N)C2)cc1-c1cnc2c(N)nc(C(F)(F)F)cn12 [Example 464, (R)-3-(5-((3-Aminopiperidin-1-yl)sulfonyl)-2-methylphenyl)-6-(trifluoromethyl)imidazo[1,2-a]pyrazin-8-amine tris(2,2,2-trifluoroacetate)] | < 100 nM | < 100 nM | < 100 nM
Cc1cn2c(-c3cc(S(=O)(=O)N[C@@H]4CC[C@@H](C(C)(C)O)OC4)c(C)cc3C)cnc2c(N)n1 [Example 465, 5-(8-Amino-6-methylimidazo[1,2-a]pyrazin-3-yl)-N-((3R,6S)-6-(2-hydroxypropan-2-yl)tetrahydro-2H-pyran-3-yl)-2,4-dimethylbenzenesulfonamide] | 100 to 500 nM | < 100 nM | 500 to 2000 nM
Cc1c(F)cc(S(=O)(=O)N[C@H]2CC[C@H](CC#N)OC2)cc1-c1cnc2c(N)nc(C(F)(F)F)nn12 [Example 466, 3-(4-Amino-2-(trifluoromethyl)imidazo[2,1-f][1,2,4]triazin-7-yl)-N-((3S,6R)-6-(cyanomethyl)tetrahydro-2H-pyran-3-yl)-5-fluoro-4-methylbenzenesulfonamide] | < 100 nM | < 100 nM | < 100 nM
Cc1ccc(S(=O)(=O)N[C@H]2CC[C@H](CF)OC2)cc1-c1cnc2c(N)ncnn12 [Example 467, 3-(4-Aminoimidazo[2,1-f][1,2,4]triazin-7-yl)-N-((3S,6R)-6-(fluoromethyl)tetrahydro-2H-pyran-3-yl)-4-methylbenzenesulfonamide] | < 100 nM | < 100 nM | 100 to 500 nM
Cc1nc(N)c2ncc(-c3cc(S(=O)(=O)NCC(C)(C)O)cc(F)c3C)n2n1 [Example 468, 3-(4-Amino-2-methylimidazo[2,1-f][1,2,4]triazin-7-yl)-5-fluoro-N-(2-hydroxy-2-methylpropyl)-4-methylbenzenesulfonamide] | 100 to 500 nM | < 100 nM | 100 to 500 nM
[2H]C([2H])([2H])c1nc(N)c2ncc(-c3cc(S(=O)(=O)NCC(C)(C)O)cc(F)c3C([2H])([2H])[2H])n2n1 [Example 469, 3-(4-Amino-2-(methyl-d3)imidazo[2,1-f][1,2,4]triazin-7-yl)-5-fluoro-N-(2-hydroxy-2-methylpropyl)-4-(methyl-d3)benzenesulfonamide] | 100 to 500 nM | < 100 nM | 100 to 500 nM
Cc1ccc(NS(=O)(=O)C2CCOCC2)cc1-c1cnc2c(N)nccn12 [Example 471, N-(3-(8-Aminoimidazo[1,2-a]pyrazin-3-yl)-4-methylphenyl)tetrahydro-2H-pyran-4-sulfonamide] | > 1000 nM | 100 to 500 nM | 500 to 2000 nM
Cc1ccc(S(=O)(=O)N2CCCC(CO)C2)cc1-c1cnc2c(N)nc(C(F)(F)F)cn12 (stereo not drawn) [Example 472, (1-((3-(8-Amino-6-(trifluoromethyl)imidazo[1,2-a]pyrazin-3-yl)-4-methylphenyl)sulfonyl)piperidin-3-yl)methanol] | 100 to 500 nM | < 100 nM | 100 to 500 nM
